Values after ≈ are worked out from the molar mass of the structure shown.
What was measured:
[1] = Inhibition of human cSrc-vSrc fusion protein expressed in rat fibroblast cells by ELISA; assay type: cell-based
HT-29 = assay: Inhibition of tumor growth in human HT29 cells xenografted nude mouse at 150 mg/kg, po OD after 14 days relative to control; assay type: functional; conditions: HT-29, 336 h
[2] = Drug level in nude mouse plasma at 50 mg/kg, po after 24 hrs; assay type: ADME, organism-based; set-up: dose 50 mg/kg, route oral
[3] = Drug level in nude mouse plasma at 50 mg/kg, po after 4 hrs; assay type: ADME, organism-based; set-up: dose 50 mg/kg, route oral
[4] = Stability in mouse plasma after 300 mins; assay type: ADME, cell-free; conditions: read-out: Stability
[5] = Permeability across artificial membrane by PAMPA; assay type: ADME; conditions: read-out: permeability
[6] = Solubility at pH 7.4; assay type: physicochemical; conditions: buffer
CYP3A4 = CYP3A4 (Homo sapiens, UniProt P08684); assay: Inhibition of CYP3A4 at 3 uM; assay type: ADME
Sequence of CYP3A4 (P08684 whole entry): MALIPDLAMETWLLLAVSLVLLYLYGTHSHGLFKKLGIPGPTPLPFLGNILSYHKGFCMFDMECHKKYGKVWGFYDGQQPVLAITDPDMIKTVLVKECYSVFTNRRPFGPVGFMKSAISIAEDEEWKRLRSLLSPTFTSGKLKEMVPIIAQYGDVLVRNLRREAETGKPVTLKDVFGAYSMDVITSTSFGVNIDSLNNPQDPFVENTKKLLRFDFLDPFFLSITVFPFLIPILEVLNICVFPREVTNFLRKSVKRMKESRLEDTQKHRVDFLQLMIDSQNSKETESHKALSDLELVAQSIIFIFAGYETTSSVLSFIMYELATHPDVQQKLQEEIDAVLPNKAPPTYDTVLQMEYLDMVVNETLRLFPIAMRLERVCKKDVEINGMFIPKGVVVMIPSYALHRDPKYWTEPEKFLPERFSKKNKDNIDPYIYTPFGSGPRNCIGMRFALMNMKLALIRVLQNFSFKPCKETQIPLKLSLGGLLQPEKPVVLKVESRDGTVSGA

CYP2D6 = CYP2D6 (Homo sapiens, UniProt P10635); assay: Inhibition of CYP2D6 at 3 uM; assay type: ADME
Sequence of CYP2D6 (P10635 whole entry): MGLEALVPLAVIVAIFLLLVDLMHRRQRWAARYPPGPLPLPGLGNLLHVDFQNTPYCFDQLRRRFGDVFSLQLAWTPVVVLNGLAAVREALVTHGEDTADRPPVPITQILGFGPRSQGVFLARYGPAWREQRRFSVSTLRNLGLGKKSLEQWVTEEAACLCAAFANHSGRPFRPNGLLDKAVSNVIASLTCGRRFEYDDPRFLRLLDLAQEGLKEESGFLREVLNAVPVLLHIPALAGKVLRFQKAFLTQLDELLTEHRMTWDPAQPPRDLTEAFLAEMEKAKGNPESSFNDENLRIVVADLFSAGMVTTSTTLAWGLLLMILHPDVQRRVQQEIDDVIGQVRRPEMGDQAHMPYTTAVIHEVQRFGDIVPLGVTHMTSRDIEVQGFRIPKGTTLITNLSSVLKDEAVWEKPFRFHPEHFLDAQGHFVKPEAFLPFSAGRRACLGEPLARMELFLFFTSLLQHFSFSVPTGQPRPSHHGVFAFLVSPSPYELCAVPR

[7] = Drug level in nude mouse plasma at 50 mg/kg, po after 8 hrs; assay type: ADME, organism-based; set-up: dose 50 mg/kg, route oral
CYP2C9 = CYP2C9 (Homo sapiens, UniProt P11712); assay: Inhibition of CYP2C9 at 3 uM; assay type: ADME
Sequence of CYP2C9 (P11712 whole entry): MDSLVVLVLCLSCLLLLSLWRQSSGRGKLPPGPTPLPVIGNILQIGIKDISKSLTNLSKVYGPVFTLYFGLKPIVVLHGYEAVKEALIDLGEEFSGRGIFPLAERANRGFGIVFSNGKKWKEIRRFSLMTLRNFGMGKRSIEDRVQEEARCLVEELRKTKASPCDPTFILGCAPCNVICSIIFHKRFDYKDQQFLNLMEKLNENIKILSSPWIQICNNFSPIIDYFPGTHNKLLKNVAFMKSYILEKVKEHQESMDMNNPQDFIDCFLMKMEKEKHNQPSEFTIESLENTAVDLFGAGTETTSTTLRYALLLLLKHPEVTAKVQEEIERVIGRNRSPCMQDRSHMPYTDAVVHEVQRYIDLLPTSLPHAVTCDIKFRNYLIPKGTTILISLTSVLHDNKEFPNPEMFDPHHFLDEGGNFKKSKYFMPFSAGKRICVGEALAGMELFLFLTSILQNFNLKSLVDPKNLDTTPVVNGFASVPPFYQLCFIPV

Structure (SMILES): COc1cc(Nc2c(C#N)cnc3cc(NCCCN4CCOCC4)c(OC)cc23)c(Cl)cc1Cl
- IC50 [1]: 390 nM

Structure (SMILES): COCCOc1ccc2c(Nc3ccc(Cl)cc3Cl)c(C#N)cnc2c1
- IC50 [1]: > 10000 nM

Structure (SMILES): COCCOc1cc2ncc(C#N)c(Nc3cc(OC)c(Cl)cc3Cl)c2cc1OC
- IC50 [1]: 190 nM

Structure (SMILES): COCCOc1ccc2c(Nc3cc(OC)c(Cl)cc3Cl)c(C#N)cnc2c1
- IC50 [1]: 1600 nM

Structure (SMILES): CCOc1cc2c(Nc3cc(OC)c(Cl)cc3Cl)c(C#N)cnc2cc1OCCOC
- IC50 [1]: 180 nM

Structure (SMILES): COc1cc(Nc2c(C#N)cnc3cc(OCCCN4CCN(C)CC4)ccc23)c(Cl)cc1Cl
- IC50 [1]: 710 nM

Structure (SMILES): COCCNc1cc2ncc(C#N)c(Nc3cc(OC)c(Cl)cc3Cl)c2cc1OC
- IC50 [1]: 1500 nM

Structure (SMILES): COc1cc(Nc2c(C#N)cnc3cc(OCCCN4CCN(C)CC4)c(OC)cc23)c(Cl)cc1Cl [BOSUTINIB]
- inhibition in vivo at 150 mg/kg (HT-29): 50%
- IC50 [1]: 100 nM
- concentration at 24 h [2]: 47 ng/mL
- concentration at 4 h [3]: 1060 ng/mL

Structure (SMILES): CCOc1cc2c(Nc3cc(OC)c(Cl)cc3Cl)c(C#N)cnc2cc1OCCCN1CCN(C)CC1
- IC50 [1]: 85 nM

Structure (SMILES): COc1cc(Nc2c(C#N)cnc3cc(NCCCN(C)C)c(OC)cc23)c(Cl)cc1Cl
- inhibition in vivo at 150 mg/kg (HT-29): 75%
- remaining at 5 h [4]: > 70%
- Papp [5]: 7.3 ×10⁻⁶ cm/s
- IC50 [1]: 300 nM
- concentration at 24 h [2]: 80 ng/mL
- solubility [6]: > 100 µg/mL
- inhibition at 3 µM (CYP3A4): < 34%
- inhibition at 3 µM (CYP2D6): < 34%
- concentration at 4 h [3]: 610 ng/mL
- concentration at 8 h [7]: 410 ng/mL
- inhibition at 3 µM (CYP2C9): < 34%

Structure (SMILES): COc1cc(Nc2c(C#N)cnc3cc(NCCCN4CCN(C)CC4)c(OC)cc23)c(Cl)cc1Cl
- inhibition in vivo at 150 mg/kg (HT-29): 63%
- remaining at 5 h [4]: > 70%
- Papp [5]: 10.7 ×10⁻⁶ cm/s
- IC50 [1]: 360 nM
- concentration at 24 h [2]: 100 ng/mL
- solubility [6]: 32 µg/mL (≈ 60.4 µM)
- inhibition at 3 µM (CYP3A4): < 34%
- inhibition at 3 µM (CYP2D6): < 34%
- concentration at 4 h [3]: 790 ng/mL
- concentration at 8 h [7]: 520 ng/mL
- inhibition at 3 µM (CYP2C9): < 34%

Structure (SMILES): COc1cc(Nc2c(C#N)cnc3cc(N(C)CCCN(C)C)c(OC)cc23)c(Cl)cc1Cl
- IC50 [1]: 2700 nM

Reference: ChEMBL document CHEMBL1144048, “Facile preparation of new 4-phenylamino-3-quinolinecarbonitrile Src kinase inhibitors via 7-fluoro intermediates: identification of potent 7-amino analogs” (Bioorg Med Chem, 2008)
